In patent US20250113824A1, “WEED CONTROL METHOD” (SUMITOMO CHEMICAL COMPANY, LIMITED, priority 2018, published 2025):

Assays:
[1] = test system: glyphosate-resistant weeds and volunteer glyphosate-tolerant soybean and cotton; assay: Foliar treatment pot test in greenhouse (Example 2); type: in vivo; details: foliar application after 21 days cultivation; 6.25, 125, 25, 50, 100 or 150 g/ha; 200 L/ha; fourteen days after treatment
Protocol: (§1) In a plastic pot are seeded glyphosate-resistant Amaranthus palmeri in which the number of copies of EPSPS gene has been increased, glyphosate-resistant waterhemp in which the number of copies of EPSPS gene has been increased, glyphosate-resistant kochia in which the number of copies of EPSPS gene has been increased, marestail which is resistant to glyphosate by involving an ABC transporter, Guernsey fleabane which is resistant to glyphosate by involving an ABC transporter, fleabane which is resistant to glyphosate by involving an ABC transporter, glyphosate-resistant goosegrass having Thr102Ile, glyphosate-resistant goosegrass having Pro106Ser, glyphosate-resistant goosegrass having Pro106Ala, glyphosate-resistant goosegrass having Pro106Leu, glyphosate-resistant goosegrass having Thr102Ile and Pro106Ser, glyphosate-resistant darnel having Thr102Ile, glyphosate-resistant darnel having Pro106Ser, glyphosate-resistant darnel having Pro106Ala, glyphosate-resistant darnel having Pro106Leu, volunteer glyphosate-tolerant soybean, and volunteer glyphosate-tolerant cotton. The plants are cultivated in a greenhouse for 21 days, and then the present compound is applied to foliage of the plants at application rate of 6.25, 125, 25, 50, 100 or 150 g/ha. The amount of a liquid sprayed is 200 L/ha. Subsequently, the plants are cultivated in a greenhouse.

[2] = test system: glyphosate-resistant weeds and volunteer glyphosate-tolerant soybean and cotton; assay: Soil treatment pot test in greenhouse (Example 1); type: in vivo; details: soil treated on day of seeding; 6.25, 12.5, 25, 50, 100 or 150 g/ha; 200 L/ha; twenty-eight days after treatment
Protocol: as §1, with “On the same day, the soil is treated with” for “The plants are cultivated in a greenhouse for 21 days, and then”, “at” for “is applied to foliage of”, “the” for “the plants at”, “12.5,” for “125,”

With `CCOC(=O)COc1ncccc1Oc1cc(-n2c(=O)cc(C(F)(F)F)n(C)c2=O)c(F)cc1Cl` [present compound, ethyl [3-[2-chloro-4-fluoro-5-(1-methyl-6-trifluoromethyl-2,4-dioxo-1,2,3,4-tetrahydropyrimidin-3-yl)phenoxy]-2-pyridyloxy]acetate] the “effect against the weeds” value [1] was “significant effect” and the “effect against the weeds” value [2] was “significant effect”.
